The record followed here is patent publication US10993923B2, “Method for ameliorating fibrosis using 1-[4-chloro-3-(trifluoromethyl)phenyl]-3-[3-(4-cyanophenoxy)phenyl]urea” (priority 2016, dated 2021).

For experiment [1], the system named is human lung epithelial cells (A549 cell line). Put plainly: TGF-β1-induced epithelial mesenchymal transition (EMT) in A549 cells. The format is cell-based. How it is done: (§1) Murine NIH3T3 fibroblasts and human lung epithelial cells (A549 cells) were purchased from the Bioresource Collection and Research Center (Hsinchu, Taiwan). Cells were cultured in Dulbecco's modified eagle medium (DMEM) containing 10% fetal bovine serum (FBS), 100 μg/mL penicillin, 100 μg/mL streptomycin. Cells were cultured at 37° C. in a humidified atmosphere of 5% CO2 and passaged every 4 to 5 days at 1:4 ratios.
(§2) Whole-cell extracts were obtained via RIPA buffer (Millipore, USA) and protein concentrations were quantified via a BCA protein assay kit (Thermo Fisher Scientific, USA). 20 or 25 μg of protein was added to various percentages of SDS-sodium dodecyl sulfate-acrylamide gel and blotted onto a polyvinylidene fluoride (PVDF) membrane. The membrane was then reacted with a primary antibody; after extensive washing, the membrane was reacted with a […] containing a second antibody. Proteins were detected by Immobilon Western Chemiluminescent HRP substrate (Millipore, USA) or ECL detection system (UVP Corporation, USA).
Antibodies for immunoblotting techniques such as anti-E-cadherin, anti-Fibronectin, anti-N-cadherin were purchased from Abcam (UK). Other antibodies such as anti-SHP-1, anti-phosphorylated STAT3(Tyr705), anti-STAT3α-smooth muscle actin (α-SMA) and anti-caspase-9 were purchased from Cell Signaling Corporation ([…], United States).
Smart-pool siRNA, including control (sc-37007) siRNA, siRNA anti-SHP-1, and STAT3, were purchased from Santa Cruz Biotechnology (California, USA).

Experiment [2] deals with LX2 cells. As to the kind of experiment: Apoptosis (Annexin V / propidium iodide flow cytometry), LX2 cells. The format is cell-based, human. How it is done: Rat immortal hepatic stellate cell line HSC-T6 and LX2 human hepatic stellate cell line were provided by Professor Scott Friedman of Mount Sinai Hospital in New York, USA. The primary mouse HSCs were obtained via the way: after intubating the hepatic portal vein of the mouse, the cells were perfused with […] and ethylene glycol bis-aminoethyl ether tetraacetic acid (EGTA) buffer in situ, and then collagenase was injected to digest the liver tissue, and then the primary mouse HSCs were isolated by Histodnz gradient. HSC-T6 cells were cultured in Waymouth medium; LX2 cells and primary mouse HSCs were cultured in Dulbecco's Modified Eagle Medium (DMEM) containing 10% fetal bovine serum (FBS), 100 μg/mL penicillin, 100 μg/mL streptomycin, and 2 mM L-glutamine HSC-T6 cells, LX2 cells and primary mouse HSCs were cultured in a humidified incubator containing 5% carbon dioxide at 37° C. After adding the FBS, the resting HSC is started. […] The experiment was carried out following the manufacturer's instructions, and each group was triple repetition. […] The proportion of apoptotic cells was mixed the early (Annexin V+/PI-) and the late (Annexin V+/PI+) apoptotic cells measured by BD FACS Verse flow cytometry (BD, USA). Plasmids encoding the human wild-type SHP-1 and SHP-1 mutant, in which the N-SH2 domain was […] was changed into an […]) were cloned into the pCMV6-entry vector with myc-tag. These mutants were confirmed through DNA sequencing. […] (Chicago, Ill., USA).
(In general: A flow cytometer gives signals particle by particle.)

Experiment [3] concerns mouse fibroblasts (NIH3T3 cell line). Put plainly: Apoptosis analysis, NIH3T3 fibroblasts. The format is cell-based. How it is done:
as §1
The measurement of apoptotic cells was conducted by flow cytometry (sub-G1) and cell death detection enzyme-bound immunosorbent assay (ELISA) for cytoplasmic histone associated DNA fragments. The amount of formazan dye was quantified by measuring the absorbance at 570 nm using ELISA reader to calculate the optical density (OD) values. Statistical analysis was determined using Student's t-test, with P<0.05 considered significant.
STAT3 cDNA (KIAA1524) was purchased from Addgene Platinum Corporation. After the transient transfection of STAT3, SHP-1, SHP-1(dN1) mutants and SHP-1(61A) mutant in mouse fibroblasts (NIH3T3 cell line) and human lung epithelial cells (A549 cell line), cells were reacted separately with the 1-[4-chloro-3-(trifluoromethyl)phenyl]-3-[3-(4-cyanophenoxy)phenyl]urea compound and subjected to the Western blotting process. Transfection was performed by X-tremeGENE HP Transfection Reagent (Roche, Germany) following the manufacturer's instructions. […]

The test system of experiment [4] is p-STAT3 in mouse fibroblasts (NIH3T3 cell line). As to the kind of experiment: Western blot of p-STAT3 in NIH3T3 fibroblasts. The format is cell-based. Conditions: FIG. 7B. How it is done:
as §1, §2
Antibodies for immunoblotting techniques such as anti-E-cadherin, anti-Fibronectin, anti-N-cadherin were purchased from Abcam (UK). […]
On the technique in general: In western blotting, separated proteins are transferred to a membrane and probed.

In experiment [5] the test system is BDL-induced cholestasis fibrosis in mice. As to the kind of experiment: Bile duct ligation (BDL) fibrosis mice prevention model. Type of experiment: in vivo, Balb/C mice. Conditions: 10 mg/kg from day 1 until sacrifice on day 14 of BDL; FIG. 13A, 13B. The source says:
In the bile duct ligation (BDL) mouse model, the common bile duct of Balb/C mice was double-ligated and excised. Mice were fed daily with vehicle or 1-[4-chloro-3-(trifluoromethyl)phenyl]-3-[3-(4-cyanophenoxy)phenyl]urea on day 1 or day 8 until they were sacrificed on day 14.
(§3) The mice liver samples were stored in 10% formaldehyde, dehydrated with gradient alcohol, embedded in paraffin blocks, sectioned to a thickness of 3 μm, placed on glass slides, and stained with Picrosirius Red Stain kit (ScyTek, USA), following the manufacturer's instructions. The severity of liver fibrosis was graded according to the Ishak fibrosis score. Quantitative collagen-positive area (qCPA) was determined by densitometry via ImageJ software. Hepatic hydroxyproline concentrations were measured by the hydroxyproline assay kit (Biovision, USA), following the manufacturer's instructions Immunohistochemistry was performed by the Leica BOND-MAX automatic chromatograph (Leica Biosystems, Germany), following the manufacturer's instructions.

The test system of experiment [6] is CCl4-induced hepatic fibrosis in mice. As to the kind of experiment: CCl4-induced hepatic fibrosis mice treatment model. Type of experiment: in vivo, male C57BL/6J mice.
Text: In male C57BL/6J mice, liver fibrosis was induced by carbon tetrachloride (CCl4). The mice were given peritoneal injection of carbon tetrachloride for 4 or 8 weeks every two weeks.
as §3
Continuous variables are presented as mean (standard error), and categorical data are presented as number (percentage), as appropriate. Differences between subgroups were evaluated using the Student t test. Spearman's correlation was used for the association between SHP-1 and serum alanine aminotransferase (ALT). The mouse survival rate was estimated using the Kaplan-Meier method. The log-rank test was used to determine the statistical differences in survival of the different experimental groups. Statistical analysis was performed using STATA (version 13, Stata Corp, College Station, Tex., USA). All tests were two-sided, and P<0.05 was considered significant.

Regarding `N#Cc1ccc(Oc2cccc(NC(=O)Nc3ccc(Cl)c(C(F)(F)F)c3)c2)cc1` [1-[4-chloro-3-(trifluoromethyl)phenyl]-3-[3-(4-cyanophenoxy)phenyl]urea], in experiment [1] (A549, FIG. 9B), the “effects of the compound (p-STAT3, EMT marker, migration and invasion) after SHP-1 knock out with siRNA” value was “offset the effects”. Further, the “effects of the compound (EMT marker, migration and invasion) after STAT3 knock out” value in experiment [1] (A549, FIG. 9C) was “offset the effects”. Moreover, in experiment [1] (A549 exposed to TGF-β1, FIG. 8B), the “TGF-β1-induced EMT (EMT marker profile)” value is “reversed TGF-β1-induced EMT in a dose-dependent manner”. Besides, the “migration and invasion of cells” value in experiment [1] (A549 exposed to TGF-β1, FIGS. 8C and 8D) is recorded as “reduced”. Besides, the “apoptotic LX2 cells, ectopic expression of the vector control and wild-type SHP-1” value in experiment [2] (5 μM, 24 hours, FIG. 17D, 17E) is “significantly increased the apoptotic LX2 cells”. Also, in experiment [2] (LX2, 24 hours, compared with sorafenib, FIG. 14B), the HSC apoptosis result was “significantly increased HSC apoptosis in a dose-dependent manner”. For the same compound, in experiment [2] (LX2, 5 μM, 24 hours, FIG. 17E), the “cell apoptosis and p-STAT3 downregulation in dN1 and D61A mutants” value is “insensitive”. Also, the “anti-proliferative activity after SHP-1 knockdown by using siRNA” value in experiment [2] (LX2, FIG. 16F) is listed as “significantly counteracted”. For the same compound, in experiment [3] (NIH3T3, SHP-1 siRNA, FIG. 7D), the “compound-induced apoptosis after SHP-1 knockout” value is “offset by SHP-1 knockout”. In addition, in experiment [3] (NIH3T3, FIG. 7C), the “apoptosis of fibrotic cells” value was “induced apoptosis”. The “expression level of p-STAT3” value in experiment [4] was “reduced”. In addition, the “quantitative collagen-positive area (qCPA)” value in experiment [5] is “significantly reduced”. Besides, the “survival compared with the sorafenib treatment” value in experiment [6] (10 mg/kg, log rank P=0.0671, FIG. 12E) was “tendency to yield higher survival”. Further, in experiment [6] (10 mg/kg, log-rank P=0.0291, FIG. 12E), the “survival rate compared with the control group” value was “significantly improved the survival rate”. Also, the “anti-fibrotic activity in qCPA, Ishak fibrosis score and hydroxyproline concentration” value in experiment [6] (5, 10, or 20 mg/kg, FIG. 12B-12D) was “increasing anti-fibrotic activity”. The “hepatic fibrosis (picrosirius red staining)” value in experiment [6] (compound 5, 10, or 20 mg/kg or sorafenib 10 mg/kg, with CCl4 for 6 weeks after 2 weeks CCl4 induction, FIG. 12A) is “significantly improved hepatic fibrosis”.
